*: point of attachment. MeOSuc = COC(=O)CCC(=O)*; CH2Cl = ClC*
Columns and labels:
[1] = target: proteinase K (PK) (Parengyodontium album, UniProt P06873); format: biochemical; settings: PK 600 ug/ml, increasing inhibitor, 3 min; RNaseALERT fluorescence at 520 nm
Description: PK (600 ug/ml) was mixed with increasing amounts of test inhibitor and allowed to react for 3 min at room temperature. RNase A was added and the mixture was incubated for 10 min. The RNase A was mixed with RNaseALERT™ substrate (AMBION®, Catalog No. AM1964) and incubated for 10 min. The fluorescence of the RNaseALERT™ substrate was measured at 520 nm.

[2] = tested on: HeLa cells; test: Lysis efficacy of surfactants by propidium iodide staining; format: cell-based, H. sapiens; settings: PI staining, 10^5 HeLa cells; for effectiveness at lysing cells: concentrations up to 3%
Description: Lysis efficacies of seven surfactants were tested by PI staining (DNA fluorochrome propidium iodide stain for viability, 1 mg/ml) of 10^5 HeLa cells treated with 0.01% to 5% surfactant. The buffer was 10 mM Tris pH 7.5, 2.5 mM MgCl2, 0.5 mM CaCl2.

[3] = Compatibility of protease inhibitors with two-step RT-PCR; format: biochemical
Source text: The samples were reverse transcribed using a Reverse Transcriptase Kit (Applied Biosystems Catalog No. 4368813) and the resulting cDNA was subjected to real time PCR with the TAQMAN® Universal PCR Master Mix (Applied Biosystems Catalog No. 4304437).

[4] = Compatibility of protease inhibitors with 1-step RT-PCR; settings: one-step reaction
[5] = tested on: DNase I
Description: The ability of EGTA to inhibit DNase I activity and the limiting amount of EGTA that could be used in RT-PCR was determined. EGTA (88 mM; final conc. of 8 mM) was added to the stop solution for DNase I inactivation. The pH of the stop solution was 8.0 for AAPV (SEQ ID NO:1) inactivation of proteinase K. Tris-base with HCl as needed for pH adjustment (11 mM; final conc of 1 mM) was used for buffering the solution.

[6] = target: T1, AMPLITAQ GOLD® DNA polymerase (Thermus aquaticus, UniProt P19821); test: Effect of surfactants on qPCR (TAQMAN Universal PCR Master Mix, PPIA assay); format: biochemical; settings: even at 1% (0.1% final in PCR)
T1 construct: purchased Applied Biosystems 4304437
Description: The effects of surfactants on PCR reactions were then studied. qPCR (20 uL) reactions with 4 ng Human Universal reference liver cDNA (Catalog No. 780622; […]®, La Jolla, Calif.) were performed by adding 2 uL of surfactant resuspended in 10 mM Tris pH 7.5 at concentrations of 0.0%, 0.01%, 0.03%, 0.1%, 0.3%, and 1%. qPCR reactions were carried out using the TAQMAN® Universal PCR Master Mix (Applied Biosystems Catalog No. 4304437), and qRT-PCR reactions were carried out using the TAQMAN® One-Step RT-PCR Master Mix (Applied Biosystems Catalog No. 4309169). TAQMAN® gene expression assays were used to determine expressions levels of genes PPIA (peptidylprolyl isomerase A (cyclophilin A)) and B2M (β-2-microglobulin).
ROX™ background fluorescence was not affected.

[7] = target: proteinase K (Parengyodontium album, UniProt P06873); test: AAPV concentration for proteinase K inhibition in lysis solution (RNase A, Bioanalyzer protein chip); format: biochemical; settings: PK 100 ug/ml
Description: For one-step RT-PCR, AAPV (SEQ ID NO:1) is effective. To determine the concentration of AAPV (SEQ ID NO:1) for inhibition of proteinase K in the lysis solution, 50 uL lysis solution was mixed with 5 uL of stop solution with varying amounts of AAPV (SEQ ID NO:1) (11 mM Tris, 44 mM EGTA, […] AAPV (SEQ ID NO:1)) and incubated for 10 min. RNase A (15 ug) was added to each sample and the samples were held for 10 min at room temperature. The reaction mixture was heated for 30 min at 95° C. and analyzed using a Protein 50 Bioanalyzer chip (2100 Bioanalyzer, Agilent, Santa Clara, Calif.). The Bioanalyzer protein gel data are provided by FIG. 7 in which the lower marker is at about 3.5 kDa; the next higher prominent bands are system peaks at about 4.0-4.5 kDa; intact RNase A is at about 20 kDa; and proteinase K is at about 35 kDa. Lanes are labeled as follows: (L) Ladder, (1) RNase Only, (2) PK Only, (3)-(8) AAPV (SEQ ID NO:1) at 1 mM (3), 0.75 mM (4), 0.5 mM (5), 0.25 mM (6), 0.125 mM (7), and 0 mM (8).

[8] = tested on: DNase I; settings: 1 mM EDTA in Buffer A; 0.2 U DNase I
Description: The 590 nm fluorescence intensity with 544 nm excitation was measured with time.

[9] = concentrations up to 2 mM in the stopped mixture (up to 400 uM in an RT reaction)

Sequence of proteinase K (PK) (P06873 106-384): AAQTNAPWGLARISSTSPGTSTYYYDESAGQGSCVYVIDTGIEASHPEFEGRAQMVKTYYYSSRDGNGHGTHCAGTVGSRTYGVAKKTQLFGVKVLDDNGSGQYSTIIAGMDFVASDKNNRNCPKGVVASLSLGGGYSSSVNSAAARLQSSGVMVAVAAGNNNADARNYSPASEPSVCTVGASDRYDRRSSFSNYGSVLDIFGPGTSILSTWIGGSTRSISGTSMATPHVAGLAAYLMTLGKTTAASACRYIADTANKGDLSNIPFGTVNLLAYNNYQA
Sequence of proteinase K (P06873 106-384): as above
T1 sequence (P19821 whole entry): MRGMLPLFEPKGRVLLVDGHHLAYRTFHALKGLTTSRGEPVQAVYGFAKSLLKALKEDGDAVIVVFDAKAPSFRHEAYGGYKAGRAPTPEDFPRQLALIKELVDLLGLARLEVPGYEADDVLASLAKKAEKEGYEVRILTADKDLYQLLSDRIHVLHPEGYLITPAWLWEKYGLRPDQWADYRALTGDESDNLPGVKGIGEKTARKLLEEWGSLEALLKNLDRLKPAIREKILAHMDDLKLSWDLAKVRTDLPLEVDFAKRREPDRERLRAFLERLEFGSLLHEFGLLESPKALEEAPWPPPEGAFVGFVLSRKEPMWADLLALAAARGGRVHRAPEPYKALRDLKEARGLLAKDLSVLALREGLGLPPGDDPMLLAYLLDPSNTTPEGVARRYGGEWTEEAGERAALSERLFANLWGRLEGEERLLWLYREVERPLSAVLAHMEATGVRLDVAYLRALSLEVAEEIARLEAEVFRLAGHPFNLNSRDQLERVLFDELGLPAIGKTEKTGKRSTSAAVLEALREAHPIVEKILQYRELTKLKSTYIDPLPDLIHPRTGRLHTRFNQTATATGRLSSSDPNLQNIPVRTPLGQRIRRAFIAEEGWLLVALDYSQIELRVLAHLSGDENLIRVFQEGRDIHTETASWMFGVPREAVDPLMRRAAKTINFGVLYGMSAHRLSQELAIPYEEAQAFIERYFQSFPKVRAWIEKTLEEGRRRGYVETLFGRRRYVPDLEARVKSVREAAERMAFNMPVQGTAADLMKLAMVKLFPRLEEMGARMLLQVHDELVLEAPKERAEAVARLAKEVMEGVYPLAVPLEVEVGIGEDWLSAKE

methoxysuccinyl-Ala-Ala-Pro-Ala-chloromethyl ketone (MeOSuc-AAPA-CH2Cl)
inhibition of PK at room temperature [1]: did not show inhibition

TWEEN™ 80
effectiveness at lysing cells [2]: not effective

CC(=O)N[C@@H](CC(C)C)C(=O)N[C@@H](CC(C)C)C(=O)N[C@H](C=O)CCCNC(=N)N [leupeptin, Ac-Leu-Leu-Arg-CHO]
inhibition of PK at room temperature [1]: capable of inhibiting PK

N=C(N)c1ccccc1 [benzamidine]
inhibition of PK at room temperature [1]: did not show inhibition

O=S(=O)(F)Cc1ccccc1 [PMSF, phenylmethylsulfonylfluoride]
RT-PCR inhibition (two-step) [3, 9]: Minimal RT-PCR inhibition
compatibility with 1-step RT-PCR [4]: showed RT-PCR inhibition

N-tosyl-L-lysine-chloromethyl ketone [TLCK]
inhibition of PK at room temperature [1]: did not show inhibition

TWEEN™ 20
effectiveness at lysing cells [2]: not effective

TWEEN™ 40
effectiveness at lysing cells [2]: not effective

octylphenol ethoxylate having an average of 9.5 ethoxylate groups [TRITON X-100™]
concentrations effective for lysis ([2]; 0.01% to 5% surfactant tested, 1% TRITON X-100 as full lysis control): ≥ 0.05%

O=C(O)CN(CCOCCOCCN(CC(=O)O)CC(=O)O)CC(=O)O [EGTA, ethylene glycol tetraacetic acid]
concentration inhibiting DNase I [5]: ≥ 4 mM

octylphenol ethoxylate having an average of 7.5 ethoxylate groups [TRITON X-114™]
effect on qPCR (Ct) [6]: no effect

NCCc1ccc(S(=O)(=O)F)cc1 [AEBSF, 4-(2-aminoethyl) benzenesulfonyl fluoride]
inhibition of PK at room temperature [1]: did not show inhibition

methoxysuccinyl-Ala-Ala-Pro-Val-chloromethyl ketone (MeOSuc-AAPV-CH2Cl)
RT-PCR inhibition (two-step) [3, 9]: Minimal RT-PCR inhibition
lowest concentration inhibiting PK [7]: ≥ 0.25 mM
lowest concentration inhibiting PK ([7]; listed as Methoxysuccinyl-AAPV-chloromethyl ketone): ≥ 0.75 mM
inhibition of PK at room temperature [1]: capable of inhibiting PK
compatibility with 1-step RT-PCR [4]: compatible

O=C(O)CN(CCN(CC(=O)O)CC(=O)O)CC(=O)O [EDTA, ethylenediamine tetraacetic acid]
effect on DNase I activity (DNaseALERT substrate fluorescence) [8]: inhibitory effect

aprotinin
RT-PCR inhibition (two-step) ([3]; all concentrations tested): inhibitory
inhibition of PK at room temperature [1]: capable of inhibiting PK
compatibility with 1-step RT-PCR [4]: showed RT-PCR inhibition

B1: N-acetyl-Eglin C: Catalog No. E7888, Sigma-Aldrich; inhibitor of chymotrypsin, subtilisin, leukocyte elastase and cathepsin G (protein)
chain: Ac-TEFGSELKSFPEVVGKTVDQAREYFTLHYPQYDVYFLPEGSPVTLDLRYNRVRVFYNPGTNVVNHVPHVG
inhibition of PK at room temperature [1]: did not show inhibition

Source: patent publication US10501780B2, “Compositions for in situ nucleic acid analysis” (APPLIED BIOSYSTEMS, LLC, priority 2007, dated 2019)
